The text below walks through data of ChEMBL document CHEMBL1150859, “Gelliusterols A--D, new acetylenic sterols from a sponge, Gellius species” (J Nat Prod, 2001).

The structures appear in SMILES notation. ≈ marks a conversion by molar mass, not a printed value.

Common to all, as to format: functional, cell-based
In one assay the test system is HT-29. The assay is described as follows: Cytotoxicity against human HT-29 cells.
The next assay deals with P388. Kind of assay: Cytotoxicity against mouse P388 cells.
The next assay deals with A549. Kind of assay: Cytotoxicity against human A549 cells.
In the next assay the test system is DU-145. Kind of assay: Cytotoxicity against human DU145 cells.
A further assay has as its system SK-MEL-28. Kind of assay: Cytotoxicity against human SK-MEL-28 cells.

What is called IC50 is the point on the concentration scale where inhibition reaches its midpoint. Higher therefore signals a need for much substance. On to `CC#CC[C@@H](C)[C@H]1CC[C@H]2[C@@H]3[C@H](O)C=C4C[C@@H](O)CC[C@]4(C)[C@H]3CC[C@]12C` [GELLIUSTEROL A], for which the IC50 with HT-29, with P388, in the assay on A549, in the assay on DU-145 and in the assay on SK-MEL-28 was > 1 mg/L throughout.
Regarding `CC#CC[C@@H](C)[C@H]1CC[C@H]2[C@@H]3C(=O)C=C4C[C@@H](O)CC[C@]4(C)[C@H]3CC[C@]12C` [GELLIUSTEROL B], the IC50 in the assay on HT-29, in the assay on P388, in the assay on A549, in the assay with DU-145 and in the assay on SK-MEL-28 was > 1 mg/L each time.
As to `CC(C)C#CC[C@@H](C)[C@H]1CC[C@H]2[C@@H]3C(=O)C=C4C[C@@H](O)CC[C@]4(C)[C@H]3CC[C@]12C` [GELLIUSTEROL C], the half-inhibitory concentration (IC50) is 0.5 mg/L (≈ 1.26 µM) in the assay on HT-29; > 1 mg/L in the assay with P388; > 1 mg/L in the assay on A549; > 1 mg/L with DU-145; > 1 mg/L in the assay on SK-MEL-28.
